Laboratory results: publication PMC8795404, “Mutations in respiratory complex I promote antibiotic persistence through alterations in intracellular acidity and protein synthesis” (Nature Communications, 2022)

Experiments:
Assay type in all cases: biochemical
6His-SpoT = molecular target: T1, 6His-SpoT (Escherichia coli, UniProt P0AG24); assay: HPLC-UV ([…] nm) ppGpp hydrolysis; conditions: 1 mM ppGpp, 1 mM manganese, cytosolic buffer with 250 mM imidazole, 25 °C, pH varied; free enzyme
T1 construct: full-length with N-terminal His tag (pETM11-SpoT), expressed in E. coli BL21 (DE3) pLysS, Ni-Sepharose purified
T1 sequence (P0AG24 whole entry): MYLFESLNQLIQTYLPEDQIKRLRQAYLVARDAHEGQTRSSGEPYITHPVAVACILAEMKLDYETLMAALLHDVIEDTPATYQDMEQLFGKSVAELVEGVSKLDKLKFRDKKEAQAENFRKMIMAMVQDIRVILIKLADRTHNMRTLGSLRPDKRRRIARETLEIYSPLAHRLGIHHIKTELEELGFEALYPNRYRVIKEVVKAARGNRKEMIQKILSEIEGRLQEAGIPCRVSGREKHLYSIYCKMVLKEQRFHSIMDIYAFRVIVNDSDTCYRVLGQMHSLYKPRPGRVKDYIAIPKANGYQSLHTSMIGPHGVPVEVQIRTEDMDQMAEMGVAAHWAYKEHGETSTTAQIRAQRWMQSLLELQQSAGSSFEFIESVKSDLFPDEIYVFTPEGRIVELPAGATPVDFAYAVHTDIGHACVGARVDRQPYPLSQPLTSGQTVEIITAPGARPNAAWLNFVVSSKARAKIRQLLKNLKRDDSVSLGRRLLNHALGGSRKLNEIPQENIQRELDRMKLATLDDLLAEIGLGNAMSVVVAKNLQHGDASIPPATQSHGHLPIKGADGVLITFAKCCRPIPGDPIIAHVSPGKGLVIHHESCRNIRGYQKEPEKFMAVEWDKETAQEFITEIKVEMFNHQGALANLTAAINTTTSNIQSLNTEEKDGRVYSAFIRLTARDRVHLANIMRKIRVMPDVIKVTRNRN

[1] = molecular target: T2, ENC-spoT (encapsulin SpoT) (Escherichia coli, UniProt P0AG24); assay: HPLC-UV ([…] nm) ppGpp hydrolysis; conditions: 1 mM ppGpp, 1 mM manganese, cytosolic buffer with 250 mM imidazole and 0.1% triton-X100, 25 °C, pH varied; enzyme encapsulated in nanocage
T2 construct: N-terminal 6xHis tag, C-terminal 30-residue DyP-peroxidase cargo tag; co-expressed in E. coli BL21-AI inside Mycolicibacterium hassiacum encapsulin nanocage
T2 sequence (P0AG24 whole entry): as above

[2] = molecular target: T3, complex I (NADH/ubiquinone oxidoreductase) (Escherichia coli, UniProt P0AFC7+P0AFD4+P31979+P33599); assay: NADH absorbance at […] nm, proteoliposomes; conditions: 100 µM NADH, 60 µM decyl-ubiquinone, 5 mM MES/NaOH, 50 mM KCl, 2 mM MgCl2, pH 6.0, 30 °C
T3 construct: gene nuoB; 13-subunit complex, about 550 kDa, NuoF His6-tagged (pBADnuo nuoFHis6) expressed in BW25113 delta-nuo delta-ndh; DDM-purified, in proteoliposomes or in membranes; with NADH-quinone oxidoreductase subunit A; NADH-quinone oxidoreductase subunit E; NADH-quinone oxidoreductase subunit G; NADH-quinone oxidoreductase subunit I; NADH-quinone oxidoreductase subunit J; NADH-quinone oxidoreductase subunit K; NADH-quinone oxidoreductase subunit L; NADH-quinone oxidoreductase subunit M; NADH-quinone oxidoreductase subunit N

Structure (SMILES) | HPLC-UV (260 nm) ppGpp hydrolysis (6His-SpoT) | HPLC-UV (260 nm) ppGpp hydrolysis [1] | NADH absorbance at 340 nm, proteoliposomes [2]
Nc1nc2c(ncn2[C@@H]2O[C@H](COP(=O)(O)OP(=O)(O)O)[C@@H](OP(=O)(O)OP(=O)(O)O)[C@H]2O)c(=O)[nH]1 [ppGpp] | SpoT hydrolyzes ppGpp to GDP, and that manganese ions are necessary for hydrolysis | We used both the encapsulated SpoT and regularly purified SpoT | 
NC(=O)C1=CN([C@@H]2O[C@H](COP(=O)(O)OP(=O)(O)OC[C@H]3O[C@@H](n4cnc5c(N)ncnc54)[C@H](O)[C@@H]3O)[C@@H](O)[C@H]2O)C=CC1 [NADH] |  |  | liposomes reconstituted with wild-type complex I and the variants oxidized NADH at a similar rate
CCCCCCCCCCC1=C(C)C(=O)C(OC)=C(OC)C1=O [decyl ubiquinone] |  |  | NADH/decyl ubiquinone oxidoreduction was followed by monitoring the decreasing NADH concentration
